Source: ChEMBL document CHEMBL4507317, “Data for DCP probe BAY-899” (2021)

Legend:
[1] = molecular target: Leukocyte tyrosine kinase receptor (Homo sapiens) (UniProt P29376); conditions: Compound concentration 1000.0 nM
[2] = molecular target: Serine/threonine-protein kinase WNK4 (Homo sapiens) (UniProt Q96J92); conditions: Compound concentration 1000.0 nM
[3] = molecular target: Cyclin-dependent kinase 5 (Homo sapiens) (UniProt Q00535); conditions: Compound concentration 1000.0 nM
[4] = molecular target: D(3) dopamine receptor (Homo sapiens) (UniProt P35462); conditions: Compound concentration 10.0 uM
[5] = molecular target: Tyrosine-protein kinase receptor UFO (Homo sapiens) (UniProt P30530); conditions: Compound concentration 1000.0 nM
[6] = molecular target: Tyrosine-protein kinase ZAP-70 (Homo sapiens) (UniProt P43403); conditions: Compound concentration 1000.0 nM
[7] = molecular target: SRSF protein kinase 1 (Homo sapiens) (UniProt Q96SB4); conditions: Compound concentration 1000.0 nM
[8] = tested on: ALK tyrosine kinase receptor (Homo sapiens), Q9UM73 [L1196M]; conditions: Compound concentration 1000.0 nM
[9] = molecular target: Cyclin-dependent kinase 15 (Homo sapiens) (UniProt Q96Q40); conditions: Compound concentration 1000.0 nM
[10] = molecular target: Serine/threonine-protein kinase D3 (Homo sapiens) (UniProt O94806); conditions: Compound concentration 1000.0 nM
[11] = molecular target: Serine/threonine-protein kinase PknB (Mycobacterium tuberculosis) (UniProt P9WI81); conditions: Compound concentration 1000.0 nM
[12] = molecular target: Mitogen-activated protein kinase 12 (Homo sapiens) (UniProt P53778); conditions: Compound concentration 1000.0 nM
[13] = molecular target: Dual specificity mitogen-activated protein kinase kinase 3 (Homo sapiens) (UniProt P46734); conditions: Compound concentration 1000.0 nM
[14] = molecular target: Mitogen-activated protein kinase kinase kinase 6 (Homo sapiens) (UniProt O95382); conditions: Compound concentration 1000.0 nM
[15] = molecular target: Serine/threonine-protein kinase 32C (Homo sapiens) (UniProt Q86UX6); conditions: Compound concentration 1000.0 nM
[16] = molecular target: Ribosomal protein S6 kinase alpha-1 (Homo sapiens) (UniProt Q15418); conditions: Compound concentration 1000.0 nM
[17] = molecular target: Serine/threonine-protein kinase 26 (Homo sapiens) (UniProt Q9P289); conditions: Compound concentration 1000.0 nM
[18] = molecular target: Tyrosine-protein kinase Tec (Homo sapiens) (UniProt P42680); conditions: Compound concentration 1000.0 nM
[19] = molecular target: Hormonally up-regulated neu tumor-associated kinase (Homo sapiens) (UniProt P57058); conditions: Compound concentration 1000.0 nM
[20] = molecular target: Ribosomal protein S6 kinase alpha-4 (Homo sapiens) (UniProt O75676); conditions: Compound concentration 1000.0 nM
[21] = molecular target: Tyrosine-protein kinase Mer (Homo sapiens) (UniProt Q12866); conditions: Compound concentration 1000.0 nM
[22] = molecular target: Phosphatidylinositol 4,5-bisphosphate 3-kinase catalytic subunit alpha isoform (Homo sapiens) (UniProt P42336); conditions: Compound concentration 1000.0 nM
[23] = molecular target: SNF-related serine/threonine-protein kinase (Homo sapiens) (UniProt Q9NRH2); conditions: Compound concentration 1000.0 nM
[24] = molecular target: Tyrosine-protein kinase JAK3 (Homo sapiens) (UniProt P52333); conditions: Compound concentration 1000.0 nM
[25] = molecular target: Discoidin domain-containing receptor 2 (Homo sapiens) (UniProt Q16832); conditions: Compound concentration 1000.0 nM
[26] = molecular target: Tyrosine-protein kinase Fer (Homo sapiens) (UniProt P16591); conditions: Compound concentration 1000.0 nM
[27] = molecular target: 5-hydroxytryptamine receptor 1B (Homo sapiens) (UniProt P28222); conditions: Compound concentration 10.0 uM
[28] = molecular target: Serine/threonine-protein kinase Chk1 (Homo sapiens) (UniProt O14757); conditions: Compound concentration 1000.0 nM
[29] = molecular target: Serine/threonine-protein kinase N2 (Homo sapiens) (UniProt Q16513); conditions: Compound concentration 1000.0 nM
[30] = molecular target: 5-hydroxytryptamine receptor 2A (Homo sapiens, UniProt P28223); conditions: Compound concentration 10.0 uM
[31] = molecular target: Serine/threonine-protein kinase D1 (Homo sapiens) (UniProt Q15139); conditions: Compound concentration 1000.0 nM
[32] = molecular target: Mitogen-activated protein kinase kinase kinase 1 (Homo sapiens) (UniProt Q13233); conditions: Compound concentration 1000.0 nM
[33] = molecular target: Sodium-dependent noradrenaline transporter (Homo sapiens) (UniProt P23975); conditions: Compound concentration 10.0 uM
[34] = molecular target: Membrane-associated tyrosine- and threonine-specific cdc2-inhibitory kinase (Homo sapiens) (UniProt Q99640); conditions: Compound concentration 1000.0 nM
[35] = molecular target: Cytoplasmic tyrosine-protein kinase BMX (Homo sapiens) (UniProt P51813); conditions: Compound concentration 1000.0 nM
[36] = molecular target: Tyrosine-protein kinase ABL2 (Homo sapiens) (UniProt P42684); conditions: Compound concentration 1000.0 nM
[37] = molecular target: Tyrosine-protein kinase receptor TYRO3 (Homo sapiens) (UniProt Q06418); conditions: Compound concentration 1000.0 nM
[38] = molecular target: Cyclin-dependent kinase 2 homolog (Plasmodium falciparum (isolate 3D7)) (UniProt P61075); conditions: Compound concentration 1000.0 nM
[39] = molecular target: Tyrosine-protein kinase Blk (Homo sapiens) (UniProt P51451); conditions: Compound concentration 1000.0 nM
[40] = molecular target: MAP kinase-interacting serine/threonine-protein kinase 2 (Homo sapiens) (UniProt Q9HBH9); conditions: Compound concentration 1000.0 nM
[41] = tested on: Epidermal growth factor receptor (Homo sapiens), P00533 [UNDEFINED MUTATION]; conditions: Compound concentration 1000.0 nM
[42] = molecular target: Leucine-rich repeat serine/threonine-protein kinase 2 (Homo sapiens) (UniProt Q5S007); conditions: Compound concentration 1000.0 nM
[43] = molecular target: Serine/threonine-protein kinase 32A (Homo sapiens) (UniProt Q8WU08); conditions: Compound concentration 1000.0 nM
[44] = molecular target: Maternal embryonic leucine zipper kinase (Homo sapiens) (UniProt Q14680); conditions: Compound concentration 1000.0 nM
[45] = molecular target: RAC-alpha serine/threonine-protein kinase (Homo sapiens) (UniProt P31749); conditions: Compound concentration 1000.0 nM

Serine/threonine-protein kinase 32A (Homo sapiens), sequence (Q8WU08 whole entry): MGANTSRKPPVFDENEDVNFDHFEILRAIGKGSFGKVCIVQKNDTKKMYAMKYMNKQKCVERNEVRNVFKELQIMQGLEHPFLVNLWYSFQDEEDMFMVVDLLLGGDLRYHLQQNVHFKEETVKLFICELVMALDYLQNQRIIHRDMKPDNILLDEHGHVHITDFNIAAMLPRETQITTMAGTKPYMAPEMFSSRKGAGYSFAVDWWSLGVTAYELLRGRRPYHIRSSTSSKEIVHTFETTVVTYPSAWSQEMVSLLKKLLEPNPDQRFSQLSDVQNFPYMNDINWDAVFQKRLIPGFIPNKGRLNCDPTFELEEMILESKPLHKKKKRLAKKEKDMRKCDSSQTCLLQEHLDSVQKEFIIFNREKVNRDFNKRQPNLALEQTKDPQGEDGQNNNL
Hormonally up-regulated neu tumor-associated kinase (Homo sapiens), sequence (P57058 whole entry): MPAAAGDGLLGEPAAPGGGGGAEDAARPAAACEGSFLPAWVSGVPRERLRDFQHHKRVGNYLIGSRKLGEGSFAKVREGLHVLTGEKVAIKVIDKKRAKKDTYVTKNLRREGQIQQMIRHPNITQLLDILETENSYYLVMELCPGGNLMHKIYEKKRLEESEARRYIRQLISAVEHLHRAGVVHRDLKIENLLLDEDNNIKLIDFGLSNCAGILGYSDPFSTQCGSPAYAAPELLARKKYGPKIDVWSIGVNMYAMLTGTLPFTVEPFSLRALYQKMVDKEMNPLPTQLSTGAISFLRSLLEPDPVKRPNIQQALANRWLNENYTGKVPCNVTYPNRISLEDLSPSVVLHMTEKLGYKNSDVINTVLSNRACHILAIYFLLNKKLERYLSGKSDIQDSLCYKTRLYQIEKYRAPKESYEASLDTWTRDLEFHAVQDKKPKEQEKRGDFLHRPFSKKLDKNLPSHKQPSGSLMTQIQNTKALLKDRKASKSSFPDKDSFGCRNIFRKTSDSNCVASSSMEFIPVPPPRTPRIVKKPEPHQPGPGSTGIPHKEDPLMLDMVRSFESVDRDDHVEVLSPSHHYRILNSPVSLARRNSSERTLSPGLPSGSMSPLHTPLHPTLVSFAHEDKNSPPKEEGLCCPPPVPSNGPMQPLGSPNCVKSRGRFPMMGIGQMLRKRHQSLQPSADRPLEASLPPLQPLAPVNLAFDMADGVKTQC
Ribosomal protein S6 kinase alpha-4 (Homo sapiens), sequence (O75676 whole entry, looked up): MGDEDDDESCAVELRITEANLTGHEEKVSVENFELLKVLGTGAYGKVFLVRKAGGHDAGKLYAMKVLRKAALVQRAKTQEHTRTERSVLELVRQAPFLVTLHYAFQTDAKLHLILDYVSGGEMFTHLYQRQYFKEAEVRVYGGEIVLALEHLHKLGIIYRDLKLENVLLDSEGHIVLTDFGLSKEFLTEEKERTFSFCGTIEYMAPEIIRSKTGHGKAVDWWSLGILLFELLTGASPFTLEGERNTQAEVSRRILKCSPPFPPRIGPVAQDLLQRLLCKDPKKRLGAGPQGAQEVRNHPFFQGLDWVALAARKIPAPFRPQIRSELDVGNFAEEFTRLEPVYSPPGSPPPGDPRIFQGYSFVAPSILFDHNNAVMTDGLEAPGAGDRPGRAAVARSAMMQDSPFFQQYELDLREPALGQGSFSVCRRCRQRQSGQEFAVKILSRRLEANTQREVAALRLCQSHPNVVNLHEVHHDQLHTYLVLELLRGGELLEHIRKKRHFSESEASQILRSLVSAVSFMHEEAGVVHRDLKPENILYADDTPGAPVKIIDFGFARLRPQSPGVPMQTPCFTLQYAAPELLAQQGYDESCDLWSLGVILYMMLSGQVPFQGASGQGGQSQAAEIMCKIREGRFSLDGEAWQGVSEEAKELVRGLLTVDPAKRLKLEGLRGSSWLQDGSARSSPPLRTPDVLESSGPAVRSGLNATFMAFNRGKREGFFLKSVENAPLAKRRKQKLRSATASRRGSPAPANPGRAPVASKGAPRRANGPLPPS
Serine/threonine-protein kinase 26 (Homo sapiens), sequence (Q9P289 2-416 limits assumed): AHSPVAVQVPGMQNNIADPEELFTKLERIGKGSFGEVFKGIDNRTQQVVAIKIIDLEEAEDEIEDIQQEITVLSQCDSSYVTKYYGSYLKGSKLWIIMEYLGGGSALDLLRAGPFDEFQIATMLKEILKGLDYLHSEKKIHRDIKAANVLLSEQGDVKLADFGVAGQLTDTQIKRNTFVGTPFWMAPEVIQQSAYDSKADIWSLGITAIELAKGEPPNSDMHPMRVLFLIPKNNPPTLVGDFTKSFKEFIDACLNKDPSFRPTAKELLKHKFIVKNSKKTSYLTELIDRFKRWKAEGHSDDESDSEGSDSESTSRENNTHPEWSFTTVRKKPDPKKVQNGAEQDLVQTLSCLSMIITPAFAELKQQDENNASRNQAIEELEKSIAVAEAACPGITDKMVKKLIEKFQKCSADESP
Tyrosine-protein kinase Fer (Homo sapiens), sequence (P16591 whole entry, looked up): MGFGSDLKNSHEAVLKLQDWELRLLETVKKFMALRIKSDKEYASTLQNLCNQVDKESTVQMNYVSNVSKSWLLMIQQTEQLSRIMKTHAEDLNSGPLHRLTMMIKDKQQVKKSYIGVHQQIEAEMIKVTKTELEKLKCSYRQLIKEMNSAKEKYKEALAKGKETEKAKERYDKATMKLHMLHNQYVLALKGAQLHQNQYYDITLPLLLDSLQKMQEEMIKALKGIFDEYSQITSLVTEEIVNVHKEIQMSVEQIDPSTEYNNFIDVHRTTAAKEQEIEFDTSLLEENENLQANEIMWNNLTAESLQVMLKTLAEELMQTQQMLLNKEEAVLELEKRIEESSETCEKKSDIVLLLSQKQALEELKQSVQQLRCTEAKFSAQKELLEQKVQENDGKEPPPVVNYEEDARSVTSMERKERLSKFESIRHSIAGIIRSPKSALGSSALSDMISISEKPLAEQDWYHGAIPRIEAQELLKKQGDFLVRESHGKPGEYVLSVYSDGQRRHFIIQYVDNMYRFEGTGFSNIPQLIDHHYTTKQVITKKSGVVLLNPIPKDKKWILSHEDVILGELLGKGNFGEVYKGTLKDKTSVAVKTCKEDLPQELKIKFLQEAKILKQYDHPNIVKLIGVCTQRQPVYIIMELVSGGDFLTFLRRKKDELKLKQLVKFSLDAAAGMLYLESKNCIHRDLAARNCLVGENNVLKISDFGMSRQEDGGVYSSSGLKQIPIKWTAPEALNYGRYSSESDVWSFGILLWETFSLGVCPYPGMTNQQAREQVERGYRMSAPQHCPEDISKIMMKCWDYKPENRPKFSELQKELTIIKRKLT
Sodium-dependent noradrenaline transporter (Homo sapiens), sequence (P23975 whole entry): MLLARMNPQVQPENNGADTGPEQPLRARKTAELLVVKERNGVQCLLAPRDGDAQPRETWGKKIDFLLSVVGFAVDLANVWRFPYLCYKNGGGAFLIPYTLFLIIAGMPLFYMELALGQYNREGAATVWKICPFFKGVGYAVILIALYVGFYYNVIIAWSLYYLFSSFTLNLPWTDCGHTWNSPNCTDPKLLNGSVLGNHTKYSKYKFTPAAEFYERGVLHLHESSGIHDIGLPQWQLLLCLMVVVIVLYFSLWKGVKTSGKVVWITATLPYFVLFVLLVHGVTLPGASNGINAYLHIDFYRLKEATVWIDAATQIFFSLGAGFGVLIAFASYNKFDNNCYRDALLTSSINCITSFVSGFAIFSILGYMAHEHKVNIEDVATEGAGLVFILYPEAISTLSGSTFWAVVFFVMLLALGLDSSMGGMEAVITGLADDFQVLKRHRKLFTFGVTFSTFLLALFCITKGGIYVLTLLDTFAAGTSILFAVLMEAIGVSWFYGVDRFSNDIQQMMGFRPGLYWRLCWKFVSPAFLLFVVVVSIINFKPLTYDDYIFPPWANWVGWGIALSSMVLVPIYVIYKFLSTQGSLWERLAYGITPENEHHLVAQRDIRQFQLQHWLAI
Dual specificity mitogen-activated protein kinase kinase 3 (Homo sapiens), sequence (P46734 whole entry): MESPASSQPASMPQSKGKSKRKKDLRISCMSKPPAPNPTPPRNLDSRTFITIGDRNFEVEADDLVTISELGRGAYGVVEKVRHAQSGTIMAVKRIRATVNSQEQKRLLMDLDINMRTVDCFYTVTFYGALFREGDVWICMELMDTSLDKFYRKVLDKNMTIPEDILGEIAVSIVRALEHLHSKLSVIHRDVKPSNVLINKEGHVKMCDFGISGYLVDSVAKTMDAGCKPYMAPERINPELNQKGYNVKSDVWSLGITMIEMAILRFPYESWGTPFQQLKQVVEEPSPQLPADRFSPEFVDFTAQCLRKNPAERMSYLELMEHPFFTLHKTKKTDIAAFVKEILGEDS
Tyrosine-protein kinase Blk (Homo sapiens), sequence (P51451 2-505 limits assumed): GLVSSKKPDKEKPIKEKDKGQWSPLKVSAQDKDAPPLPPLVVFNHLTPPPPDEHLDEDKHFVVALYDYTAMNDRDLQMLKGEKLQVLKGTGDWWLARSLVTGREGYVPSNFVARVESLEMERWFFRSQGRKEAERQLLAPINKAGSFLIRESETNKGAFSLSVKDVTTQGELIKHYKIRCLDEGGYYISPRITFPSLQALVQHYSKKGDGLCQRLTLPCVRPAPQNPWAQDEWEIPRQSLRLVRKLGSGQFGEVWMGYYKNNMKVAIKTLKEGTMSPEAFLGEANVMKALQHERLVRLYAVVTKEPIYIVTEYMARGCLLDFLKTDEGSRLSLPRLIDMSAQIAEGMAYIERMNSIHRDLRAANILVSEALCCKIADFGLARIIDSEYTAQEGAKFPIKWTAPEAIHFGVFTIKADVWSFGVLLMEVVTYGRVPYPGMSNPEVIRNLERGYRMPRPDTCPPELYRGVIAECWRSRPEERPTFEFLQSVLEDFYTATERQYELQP
Cyclin-dependent kinase 15 (Homo sapiens), sequence (Q96Q40 whole entry): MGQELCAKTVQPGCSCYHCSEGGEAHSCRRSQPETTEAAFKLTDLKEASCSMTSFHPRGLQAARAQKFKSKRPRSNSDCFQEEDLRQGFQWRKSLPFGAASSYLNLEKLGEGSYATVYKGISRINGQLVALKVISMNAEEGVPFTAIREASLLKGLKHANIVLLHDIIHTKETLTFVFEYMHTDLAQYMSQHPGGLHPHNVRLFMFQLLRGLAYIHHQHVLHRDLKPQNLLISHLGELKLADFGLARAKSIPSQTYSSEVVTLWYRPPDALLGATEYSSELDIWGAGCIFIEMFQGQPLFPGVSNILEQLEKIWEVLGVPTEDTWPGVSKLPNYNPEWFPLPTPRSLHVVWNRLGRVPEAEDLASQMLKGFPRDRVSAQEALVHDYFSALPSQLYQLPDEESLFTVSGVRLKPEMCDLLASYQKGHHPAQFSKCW

Compound O=C(Nc1cnc(Oc2ccc(F)cc2)nc1)N1CCc2ncccc2[C@@H]1c1ccc(F)cc1 [BAY-899] has a residual activity [1] of 93%, a residual activity [2] of 81% and a residual activity [3] of 100%. The inhibition [4] was -4.36%, the residual activity [5] was 76% and the residual activity [6] was 93%. It also gave a residual activity [7] of 100%, a residual activity [8] of 100% and a residual activity [9] of 93%. It also gave a residual activity [10] of 84%, a residual activity [11] of 90% and a residual activity [12] of 96%. For the same compound, the residual activity [13] was 76%, the residual activity [14] was 94% and the residual activity [15] was 96%. The residual activity [16] was 71%, the residual activity [17] was 90% and the residual activity [18] was 89%. The residual activity [19] was 100%, the residual activity [20] was 91% and the residual activity [21] was 100%. The residual activity [22] was 100%, the residual activity [23] was 90% and the residual activity [24] was 91%. It also gave a residual activity [25] of 100%, a residual activity [26] of 93% and an inhibition [27] of 36.4%. For the same compound, the residual activity [28] was 84%, the residual activity [29] was 78% and the inhibition [30] was 8.72%. It also gave a residual activity [31] of 100%, a residual activity [32] of 89% and an inhibition [33] of 10.2%. It also gave a residual activity [34] of 80%, a residual activity [35] of 94% and a residual activity [36] of 78%. The residual activity [37] was 100%, the residual activity [38] was 100% and the residual activity [39] was 80%. It also gave a residual activity [40] of 94%, a residual activity [41] of 70% and a residual activity [42] of 83%. For the same compound, the residual activity [43] was 100%, the residual activity [44] was 66% and the residual activity [45] was 100%.

O=C(Nc1ccc(Oc2ccc(F)cc2)cc1)N1CCc2ncccc2[C@H]1c1ccc(F)cc1 [BAY-897] gave a residual activity [1] of 86%, a residual activity [2] of 85% and a residual activity [3] of 100%. It also gave an inhibition [4] of -2.66%, a residual activity [5] of 77% and a residual activity [6] of 91%. It also gave a residual activity [7] of 94%, a residual activity [8] of 100% and a residual activity [9] of 86%. For the same compound, the residual activity [10] was 98%, the residual activity [11] was 86% and the residual activity [12] was 94%. For the same compound, the residual activity [13] was 88%, the residual activity [14] was 100% and the residual activity [15] was 75%. It also gave a residual activity [16] of 79%, a residual activity [17] of 100% and a residual activity [18] of 86%. The residual activity [19] was 99%, the residual activity [20] was 94% and the residual activity [21] was 96%. The residual activity [22] was 83%, the residual activity [23] was 90% and the residual activity [24] was 100%. It also gave a residual activity [25] of 100%, a residual activity [26] of 91% and an inhibition [27] of 18.8%. For the same compound, the residual activity [28] was 100%, the residual activity [29] was 80% and the inhibition [30] was 54.5%. The residual activity [31] was 94%, the residual activity [32] was 87% and the inhibition [33] was 32.5%. The residual activity [34] was 63%, the residual activity [35] was 100% and the residual activity [36] was 88%. For the same compound, the residual activity [37] was 99%, the residual activity [38] was 87% and the residual activity [39] was 90%. For the same compound, the residual activity [40] was 91%, the residual activity [41] was 80% and the residual activity [42] was 76%. The residual activity [43] was 100%, the residual activity [44] was 78% and the residual activity [45] was 95%.
